Data as given in ChEMBL document CHEMBL1177814, “Antitumor agents 278. 4-Amino-2H-benzo[h]chromen-2-one (ABO) analogs as potent in vitro anti-cancer agents” (2010).

Key:
Type in all cases: functional
[1] = test system: A549; test: Cytotoxicity against human A549 cells after 72 hrs by SRB assay; details: A549, 72 h, read-out: ED50 (the source's name)
[2] = test system: KB; test: Cytotoxicity against human KB cells after 72 hrs by SRB assay; details: read-out: ED50 (the source's name)
[3] = test system: SK-BR-3; test: Cytotoxicity against human SK-BR-3 cells after 72 hrs by SRB assay; details: SK-BR-3, 72 h, read-out: ED50 (the source's name)
[4] = test system: MDA-MB-231; test: Cytotoxicity against human MDA-MB-231 cells after 72 hrs by SRB assay; details: MDA-MB-231, 72 h, read-out: ED50 (the source's name)
[5] = test system: ZR-75-1; test: Cytotoxicity against human ZR-75-1 cells after 72 hrs by SRB assay; details: ZR-75-1, 72 h, read-out: ED50 (the source's name)
[6] = Cytotoxicity against human KBVIN cells after 72 hrs by SRB assay; details: read-out: ED50 (the source's name)
[7] = test system: DU-145; test: Cytotoxicity against human DU145 cells after 72 hrs by SRB assay; details: DU-145, 72 h, read-out: ED50 (the source's name)

SMILES: O=c1cc(N2CCCCC2)c2ccc3ccccc3c2o1
- EC50 [1]: > 30000 nM
- EC50 [2]: > 30000 nM
- EC50 [3]: > 30000 nM
- EC50 [4]: 30000 nM
- EC50 [5]: > 30000 nM
- EC50 [6]: 10900 nM
- EC50 [7]: > 30000 nM

SMILES: O=c1cc(Nc2ccccc2Br)c2ccc3ccccc3c2o1
- EC50 [1]: 190 nM
- EC50 [2]: 160 nM
- EC50 [3]: 260 nM
- EC50 [4]: 2600 nM
- EC50 [5]: 380 nM
- EC50 [6]: 150 nM
- EC50 [7]: 230 nM

SMILES: Cc1cccc(Nc2cc(=O)oc3c2ccc2ccccc23)c1
- EC50 [1]: 150 nM
- EC50 [2]: 140 nM
- EC50 [3]: 150 nM
- EC50 [4]: 760 nM
- EC50 [5]: 80 nM
- EC50 [6]: 140 nM
- EC50 [7]: 140 nM

SMILES: COc1cccc(Nc2cc(=O)oc3c2ccc2ccccc23)c1
- EC50 [1]: 290 nM
- EC50 [2]: 220 nM
- EC50 [3]: 300 nM
- EC50 [4]: 1300 nM
- EC50 [5]: 500 nM
- EC50 [6]: 170 nM
- EC50 [7]: 270 nM

SMILES: O=c1cc(Nc2cccc(Br)c2)c2ccc3ccccc3c2o1
- EC50 [1]: > 30000 nM
- EC50 [2]: > 30000 nM
- EC50 [3]: > 30000 nM
- EC50 [4]: > 30000 nM
- EC50 [5]: > 30000 nM
- EC50 [6]: > 30000 nM
- EC50 [7]: > 30000 nM

SMILES: O=c1cc(NC2CC2)c2ccc3ccccc3c2o1
- EC50 [1]: 29800 nM
- EC50 [2]: 7800 nM
- EC50 [3]: 20800 nM
- EC50 [4]: 10000 nM
- EC50 [5]: 19500 nM
- EC50 [6]: 9900 nM
- EC50 [7]: 9600 nM

SMILES: O=c1cc(NC2CCCCC2)c2ccc3ccccc3c2o1
- EC50 [1]: 720 nM
- EC50 [2]: 610 nM
- EC50 [3]: 1300 nM
- EC50 [4]: 4100 nM
- EC50 [5]: 5800 nM
- EC50 [6]: 430 nM
- EC50 [7]: 970 nM

SMILES: COC(=O)CNc1cc(=O)oc2c1ccc1ccccc12
- EC50 [1]: 4700 nM
- EC50 [2]: 4600 nM
- EC50 [3]: 3800 nM
- EC50 [4]: 4200 nM
- EC50 [5]: 6700 nM
- EC50 [6]: 3100 nM
- EC50 [7]: 4100 nM

SMILES: O=c1cc(Nc2ccc(Br)cc2)c2ccc3ccccc3c2o1
- EC50 [1]: 720 nM
- EC50 [2]: 410 nM
- EC50 [3]: 500 nM
- EC50 [4]: 6800 nM
- EC50 [5]: 3100 nM
- EC50 [6]: 470 nM
- EC50 [7]: 520 nM

SMILES: Cc1ccccc1Nc1cc(=O)oc2c1ccc1ccccc12
- EC50 [1]: 1300 nM
- EC50 [2]: 2100 nM
- EC50 [3]: 1600 nM
- EC50 [4]: 8300 nM
- EC50 [5]: 4300 nM
- EC50 [6]: 840 nM
- EC50 [7]: 1300 nM

SMILES: COc1ccccc1Nc1cc(=O)oc2c1ccc1ccccc12
- EC50 [1]: 600 nM
- EC50 [2]: 500 nM
- EC50 [3]: 640 nM
- EC50 [4]: 7300 nM
- EC50 [5]: 4700 nM
- EC50 [6]: 470 nM
- EC50 [7]: 760 nM

SMILES: CCc1cccc2c1ccc1c(NCC(=O)N(C)OC)cc(=O)oc12
- EC50 [1]: 17600 nM
- EC50 [2]: 21500 nM
- EC50 [3]: 17400 nM
- EC50 [4]: > 30000 nM
- EC50 [5]: 18200 nM
- EC50 [6]: 19700 nM
- EC50 [7]: 16200 nM

SMILES: O=c1cc(Nc2cccc3ccccc23)c2ccc3ccccc3c2o1
- EC50 [1]: 250 nM
- EC50 [2]: 270 nM
- EC50 [3]: 320 nM
- EC50 [4]: 470 nM
- EC50 [5]: 530 nM
- EC50 [6]: 200 nM
- EC50 [7]: 300 nM

SMILES: CCCN(CCC)c1cc(=O)oc2c1ccc1ccccc12
- EC50 [1]: > 30000 nM
- EC50 [2]: > 30000 nM
- EC50 [3]: > 30000 nM
- EC50 [4]: 30000 nM
- EC50 [5]: > 30000 nM
- EC50 [6]: 20800 nM
- EC50 [7]: > 30000 nM

SMILES: CON(C)C(=O)CNc1cc(=O)oc2c1ccc1ccccc12
- EC50 [1]: 3100 nM
- EC50 [2]: 2200 nM
- EC50 [3]: 4500 nM
- EC50 [4]: 5800 nM
- EC50 [5]: 480 nM
- EC50 [6]: 3000 nM
- EC50 [7]: 3200 nM

SMILES: O=c1cc(Nc2ccccc2)c2ccc3ccccc3c2o1
- EC50 [1]: 980 nM
- EC50 [2]: 440 nM
- EC50 [3]: 1600 nM
- EC50 [4]: 270 nM
- EC50 [5]: 910 nM
- EC50 [6]: 500 nM
- EC50 [7]: 820 nM

SMILES: Cc1ccc(Nc2cc(=O)oc3c2ccc2ccccc23)cc1
- EC50 [1]: 250 nM
- EC50 [2]: 220 nM
- EC50 [3]: 380 nM
- EC50 [4]: 15300 nM
- EC50 [5]: 13000 nM
- EC50 [6]: 170 nM
- EC50 [7]: 370 nM

SMILES: CNc1cc(=O)oc2c1ccc1ccccc12
- EC50 [1]: > 30000 nM
- EC50 [2]: > 30000 nM
- EC50 [3]: > 30000 nM
- EC50 [4]: > 30000 nM
- EC50 [5]: > 30000 nM
- EC50 [6]: > 30000 nM
- EC50 [7]: > 30000 nM

SMILES: CCCNc1cc(=O)oc2c1ccc1ccccc12
- EC50 [1]: > 30000 nM
- EC50 [2]: > 30000 nM
- EC50 [3]: > 30000 nM
- EC50 [4]: 19800 nM
- EC50 [5]: > 30000 nM
- EC50 [6]: 10600 nM
- EC50 [7]: > 30000 nM

SMILES: CCc1ccc(Nc2cc(=O)oc3c2ccc2ccccc23)cc1
- EC50 [1]: 200 nM
- EC50 [2]: 280 nM
- EC50 [3]: 300 nM
- EC50 [4]: 1400 nM
- EC50 [5]: 790 nM
- EC50 [6]: 180 nM
- EC50 [7]: 300 nM

SMILES: COc1ccc(Nc2cc(=O)oc3c2ccc2ccccc23)cc1
- EC50 [1]: 170 nM
- EC50 [2]: 110 nM
- EC50 [3]: 130 nM
- EC50 [4]: 20 nM
- EC50 [5]: 10 nM
- EC50 [6]: 130 nM
- EC50 [7]: 110 nM

SMILES: O=c1cc(Nc2ccc(F)cc2)c2ccc3ccccc3c2o1
- EC50 [1]: 810 nM
- EC50 [2]: 1200 nM
- EC50 [3]: 1100 nM
- EC50 [4]: > 30000 nM
- EC50 [5]: 3200 nM
- EC50 [6]: 510 nM
- EC50 [7]: 780 nM

SMILES: O=c1cc(N2CCOCC2)c2ccc3ccccc3c2o1
- EC50 [1]: > 30000 nM
- EC50 [2]: > 30000 nM
- EC50 [3]: > 30000 nM
- EC50 [4]: > 30000 nM
- EC50 [5]: 3900 nM
- EC50 [6]: > 30000 nM
- EC50 [7]: > 30000 nM

SMILES: Cc1cccc2c1ccc1c3occ(C)c3c(=O)oc21
- EC50 [1]: > 30000 nM
- EC50 [2]: > 30000 nM
- EC50 [3]: 950 nM
- EC50 [4]: > 30000 nM
- EC50 [5]: 950 nM
- EC50 [6]: > 30000 nM
- EC50 [7]: > 30000 nM
